What was measured:
Settings in all cases: 72 h
Caco-2 [1] = assay: cell viability relative to DMSO; higher = less toxic
Calu-3 [2] = assay: as above
U2OS [3] = assay: as above
Vero E6 [4] = assay: as above
Caco-2 [5] = assay: relative viability EC50 (midpoint between 100% and the lowest measured viability); higher = less toxic
Calu-3 [6] = assay: as above
U2OS [7] = assay: as above
Vero E6 [8] = assay: as above
Caco-2 [9] = assay: drug sensitivity score (DSS) for viability; higher = more toxic; extreme values may be limits of the assay
Calu-3 [10] = assay: as above
U2OS [11] = assay: as above
Vero E6 [12] = assay: as above
HepG2 [13] = assay: cell viability relative to DMSO; higher = less toxic
HepG2 [14] = assay: relative viability EC50 (midpoint between 100% and the lowest measured viability); higher = less toxic
HepG2 [15] = assay: drug sensitivity score (DSS) for viability; higher = more toxic; extreme values may be limits of the assay

Row | SMILES | cell viability (Caco-2 [1]; 1 nM) | cell viability (Caco-2 [1]; 10 nM) | cell viability (Caco-2 [1]; 100 nM) | cell viability (Caco-2 [1]; 1000 nM) | cell viability (Caco-2 [1]; 10000 nM) | cell viability (Calu-3 [2]; 1 nM) | cell viability (Calu-3 [2]; 10 nM) | cell viability (Calu-3 [2]; 100 nM) | cell viability (Calu-3 [2]; 1000 nM) | cell viability (Calu-3 [2]; 10000 nM) | cell viability (U2OS [3]; 1 nM) | cell viability (U2OS [3]; 10 nM) | cell viability (U2OS [3]; 100 nM) | cell viability (U2OS [3]; 1000 nM) | cell viability (U2OS [3]; 10000 nM) | cell viability (Vero E6 [4]; 1 nM) | cell viability (Vero E6 [4]; 10 nM) | cell viability (Vero E6 [4]; 100 nM) | cell viability (Vero E6 [4]; 1000 nM) | cell viability (Vero E6 [4]; 10000 nM) | relative viability EC50 (Caco-2 [5]) | relative viability EC50 (Calu-3 [6]) | relative viability EC50 (U2OS [7]) | relative viability EC50 (Vero E6 [8]) | drug sensitivity score (Caco-2 [9]) | drug sensitivity score (Calu-3 [10]) | drug sensitivity score (U2OS [11]) | drug sensitivity score (Vero E6 [12]) | cell viability (HepG2 [13]; 1 nM) | cell viability (HepG2 [13]; 10 nM) | cell viability (HepG2 [13]; 100 nM) | cell viability (HepG2 [13]; 1000 nM) | cell viability (HepG2 [13]; 10000 nM) | relative viability EC50 (HepG2 [14]) | drug sensitivity score (HepG2 [15])
1 | C[N+](C)(C)CCOC(N)=O [carbachol] | 93.6% | 98.2% | 106% | 99.1% | 106% | 95% | 102% | 94% | 97.8% | 100% | 107% | 107% | 98.3% | 103% | 98.3% | 101% | 98.4% | 97.3% | 97.2% | 99% | > 10 µM | > 10 µM | > 10 µM | > 10 µM | 0 | 0 | 0 | 0 |  |  |  |  |  |  | 
2 | O=S(=O)(O)c1cc(I)c(O)c2ncccc12 [chiniofon] | 107% | 101% | 95.4% | 104% | 94.8% | 98.2% | 102% | 94.6% | 95.9% | 93.6% |  |  |  |  |  |  |  |  |  |  | > 10 µM | > 10 µM |  |  | 0 | 0 |  |  | 111% | 102% | 104% | 102% | 99% | > 10 µM | 0
3 | O=C(O)c1cc(Oc2ccc([N+](=O)[O-])cc2)cc(Oc2ccc([N+](=O)[O-])cc2)c1 [compound-w] |  |  |  |  |  | 107% | 104% | 105% | 96.9% | 94.6% |  |  |  |  |  |  |  |  |  |  |  | > 10 µM |  |  |  | 0 |  |  | 106% | 98.9% | 102% | 104% | 108% | > 10 µM | 0
4 | CCOc1c(N2CCOCC2)cnn(C)c1=O [emorfazone] | 99.1% | 119% | 112% | 127% | 108% |  |  |  |  |  | 96.4% | 93.1% | 93.8% | 96.1% | 104% | 95.3% | 93.6% | 98.3% | 96.2% | 99.4% | > 10 µM |  | > 10 µM | > 10 µM | 0 |  | 0 | 0 | 106% | 109% | 97.2% | 118% | 108% | > 10 µM | 0
5 | COc1cc(OC)cc(N(CCNC(C)C)c2ccc3ncc(-c4cnn(C)c4)nc3c2)c1 [erdafitinib] | 90.1% | 99.3% | 94% | 99.3% | 65.2% | 109% | 90.2% | 92.3% | 89.6% | 81.4% | 101% | 97.3% | 91.5% | 84% | 53.1% | 94% | 99% | 92% | 98.9% | 35.9% |  | > 10 µM |  | 3.04 µM | 1.7 | 1.3 | 4.1 | 3.6 | 101% | 111% | 104% | 99.4% | 39.2% | 3.09 µM | 3.4
6 | CC(C)[C@@H](C)/C=C/[C@@H](C)[C@H]1CC[C@H]2C3=CC=C4C[C@@H](O)CC[C@]4(C)[C@H]3CC[C@]12C [ergosterol] |  |  |  |  |  |  |  |  |  |  | 103% | 96.7% | 97.8% | 94.7% | 102% | 95.7% | 103% | 94.7% | 102% | 95.5% |  |  | > 10 µM | > 10 µM |  |  | 0 | 0 | 92% | 102% | 96.5% | 104% | 95% | > 10 µM | 0
7 | CCCCc1nc(C)c(CC(=S)N(C)C)c(=O)n1Cc1ccc(-c2ccccc2-c2nnn[nH]2)cc1 [fimasartan] | 94.2% | 89.4% | 90.8% | 96.9% | 113% | 94.9% | 99.5% | 128% | 94.4% | 115% | 107% | 96.6% | 102% | 101% | 104% | 98% | 95.8% | 93% | 101% | 106% | > 10 µM | > 10 µM | > 10 µM | > 10 µM | 0 | 0 | 0 | 0 |  |  |  |  |  |  | 
8 | OC[C@H]1O[C@@H](Oc2cc3c(O)cc(O)cc3[o+]c2-c2ccc(O)c(O)c2)[C@H](O)[C@@H](O)[C@@H]1O [kuromanin] | 98.3% | 95.4% | 86.5% | 100% | 96.7% | 98.7% | 111% | 89.7% | 102% | 98.8% | 96.6% | 99.8% | 96.6% | 99.5% | 93.6% | 103% | 102% | 103% | 98% | 94.4% | > 10 µM | > 10 µM | > 10 µM | > 10 µM | 0 | 0 | 0 | 0 |  |  |  |  |  |  | 
9 | C[C@@H]1C/C=C/C=C/C=C/C=C/[C@H](O[C@@H]2O[C@H](C)[C@@H](O)[C@H](N)[C@@H]2O)C[C@@H]2O[C@](O)(C[C@@H](O)C[C@H]3O[C@@H]3/C=C/C(=O)O1)C[C@H](O)[C@H]2C(=O)O [natamycin] | 90.9% | 103% | 95.3% | 97.1% | 107% |  |  |  |  |  | 95.9% | 97.5% | 94.3% | 102% | 108% | 95.7% | 96.6% | 93.3% | 88.7% | 105% | > 10 µM |  | > 10 µM | > 10 µM | 0 |  | 0 | 0 | 89.7% | 91.6% | 92.5% | 93.3% | 94.8% | > 10 µM | 0
10 | NC(=O)OCCCc1ccccc1 [phenprobamate] | 104% | 95.4% | 99.1% | 102% | 104% |  |  |  |  |  | 102% | 98.6% | 103% | 102% | 98.9% |  |  |  |  |  | > 10 µM |  | > 10 µM |  | 0 |  | 0 |  | 105% | 109% | 95% | 98.6% | 112% | > 10 µM | 0
11 | CCc1ccc(CCOc2ccc(CC3SC(=O)NC3=O)cc2)nc1 (configuration not stated) [pioglitazone] | 93.1% | 100% | 98.6% | 92.4% | 91.5% | 94.9% | 98.1% | 95.1% | 106% | 84.1% | 94.8% | 94.7% | 96% | 97.8% | 95.8% | 99% | 101% | 98.9% | 83% | 85.5% | > 10 µM | > 10 µM | > 10 µM | > 10 µM | 0 | 0.1 | 0 | 2 |  |  |  |  |  |  | 
12 | NCCNc1ccc(NCCN)c2c1C(=O)c1ccncc1C2=O [pixantrone] | 87.4% | 105% | 96.7% | 88.1% | 74.9% | 93.4% | 120% | 95.4% | 102% | 82.5% | 100% | 101% | 96.5% | 103% | 87.2% | 104% | 104% | 104% | 94.4% | 97% |  | > 10 µM | > 10 µM | > 10 µM | 1.9 | 0.3 | 0 | 0 | 100% | 94.8% | 98.9% | 90.2% | 62.9% |  | 3.3
13 | CCOC(=O)[C@H](C)C[C@@H](Cc1ccc(-c2ccccc2)cc1)NC(=O)CCC(=O)O [sacubitril] | 94.4% | 95.3% | 101% | 92.5% | 100% | 91.6% | 96.6% | 99.4% | 97.3% | 98.5% | 101% | 98.5% | 96% | 97.3% | 97.5% | 93.6% | 106% | 91.3% | 94.5% | 107% | > 10 µM | > 10 µM | > 10 µM | > 10 µM | 0 | 0 | 0 | 0 |  |  |  |  |  |  | 
14 | Cc1ccc(C(=O)c2cc(O)c(O)c([N+](=O)[O-])c2)cc1 [tolcapone] |  |  |  |  |  |  |  |  |  |  |  |  |  |  |  | 109% | 102% | 99.8% | 100% | 104% |  |  |  | > 10 µM |  |  |  | 0 | 106% | 117% | 105% | 109% | 97.2% | > 10 µM | 0
15 | Cc1cc(Nc2cc(N3CCN(C)CC3)nc(Sc3ccc(NC(=O)C4CC4)cc3)n2)n[nH]1 [tozasertib] | 97.1% | 91.1% | 96.2% | 97.7% | 77.9% | 110% | 97.6% | 96.8% | 89.1% | 70.9% | 105% | 101% | 101% | 86.2% | 54.9% | 107% | 107% | 100% | 84.2% | 85% | > 10 µM |  |  | > 10 µM | 1.1 | 2.2 | 4.4 | 1.6 | 103% | 99.2% | 70.4% | 72.4% | 36.4% | 0.448 µM | 9.1
16 | N=C(N)NCCC[C@H](NC(=O)[C@@H]1CCCN1C(=O)[C@@H]1CSSC[C@H](N)C(=O)N[C@@H](Cc2ccc(O)cc2)C(=O)N[C@@H](Cc2ccccc2)C(=O)N[C@@H](CCC(N)=O)C(=O)N[C@@H](CC(N)=O)C(=O)N1)C(=O)NCC(N)=O [vasopressin] | 94.8% | 93% | 88% | 87.5% | 99.2% |  |  |  |  |  | 102% | 97.2% | 99.8% | 97.8% | 98% | 101% | 99.1% | 98.1% | 94% | 99.1% | > 10 µM |  | > 10 µM | > 10 µM | 0 |  | 0 | 0 | 101% | 98% | 86.3% | 92.3% | 99.5% | > 10 µM | 0
17 | N#Cc1ccc2[nH]cc(CCCCN3CCN(c4ccc5oc(C(N)=O)cc5c4)CC3)c2c1 [vilazodone] | 96.6% | 106% | 104% | 101% | 83% | 87.5% | 88.7% | 74.5% | 93.6% | 86.6% | 99.4% | 108% | 97.7% | 101% | 92% | 92.7% | 99.6% | 95.3% | 91.2% | 71.6% | > 10 µM | > 10 µM | > 10 µM |  | 0.3 | 0 | 0 | 2 | 107% | 99.9% | 99.5% | 95.9% | 66.4% |  | 2.2
